Test results published in patent publication US12485122B2, “Combination of palbociclib and adagrasib for lung cancer” (Mirati Therapeutics, Inc., priority 2018, dated 2025).

Columns and labels:
Format in all cases: in vivo, nude/nude mice
LU6405 cells = assay: LU6405 tumor bearing mice, single agents and combination; details: for Average Tumor Volume: Compound 478 100 mg/kg, palbociclib 130 mg/kg, 5 mice averaged
Protocol: (§1) Immunocompromised nude/nude mice were inoculated in the right hind flank with cells or patient derived tumor samples harboring a KRas G12C mutation. When tumor volumes reached between 200-400 mm^3 in size, the mice were divided into four groups of 5-12 mice each. The first group was administered vehicle only. […] The fourth group was administered the single agent dose of the KRas G12C inhibitor in combination with the single agent dose of the CDK 4/6 inhibitor. […] Tumor volumes were measured using a caliper every two-three days and tumor volumes are calculated by the formula: […].
In another experiment, on Day 0, 20 nude/nude mice were inoculated in the right hind limb with 5×10^6 LU6405 cells.

SW1573 cells = assay: SW1573 tumor bearing mice, single agents and combination; details: for tumor growth inhibition: Day 28, single agent, Compound 478 100 mg/kg or palbociclib 130 mg/kg p.o. daily; for Average Tumor Volume: Compound 478 100 mg/kg, palbociclib 130 mg/kg, 7 mice averaged
Protocol: as §1
For example, 28 nude/nude mice were inoculated in the right hind limb with 5×10^6 SW1573 cells.

H2122 cells = assay: H2122 tumor bearing mice, single agents and combination; details: for tumor growth inhibition: Day 23, single agent, Compound 478 100 mg/kg or palbociclib 130 mg/kg p.o. daily; for Average Tumor Volume: Compound 478 100 mg/kg, palbociclib 130 mg/kg, 5 mice averaged
Protocol: as §1
Similarly, 20 nude/nude mice were inoculated in the right hind limb with 5×10^6 H2122 cells.

[1] = Study Day 22, p.o. daily for 21 days
[2] = Study Day 24, p.o. daily for 21 days
[3] = Study Day 23, p.o. daily for 21 days

| Structure (SMILES) | Average Tumor Volume (LU6405 cells; Study Day 1, p.o. daily) [mm^3] | Average Tumor Volume (LU6405 cells; Study Day 4, p.o. daily) [mm^3] | Average Tumor Volume (LU6405 cells; Study Day 8, p.o. daily) [mm^3] | Average Tumor Volume (LU6405 cells; Study Day 11, p.o. daily) [mm^3] | Average Tumor Volume (LU6405 cells; Study Day 15, p.o. daily) [mm^3] | Average Tumor Volume (LU6405 cells; Study Day 18, p.o. daily) [mm^3] | Average Tumor Volume (LU6405 cells; [1]) [mm^3] | Average Tumor Volume (LU6405 cells; [2]) [mm^3] | tumor growth inhibition (SW1573 cells) [%] | Average Tumor Volume (SW1573 cells; Study Day 0, p.o. daily) [mm^3] | Average Tumor Volume (SW1573 cells; Study Day 6, p.o. daily) [mm^3] | Average Tumor Volume (SW1573 cells; Study Day 9, p.o. daily) [mm^3] | Average Tumor Volume (SW1573 cells; Study Day 14, p.o. daily) [mm^3] | Average Tumor Volume (SW1573 cells; Study Day 16, p.o. daily) [mm^3] | Average Tumor Volume (SW1573 cells; Study Day 18, p.o. daily) [mm^3] | Average Tumor Volume (SW1573 cells; Study Day 21, p.o. daily) [mm^3] | Average Tumor Volume (SW1573 cells; Study Day 23, p.o. daily) [mm^3] | Average Tumor Volume (SW1573 cells; Study Day 25, p.o. daily) [mm^3] | Average Tumor Volume (SW1573 cells; Study Day 28, p.o. daily) [mm^3] | tumor growth inhibition (H2122 cells) [%] | further results |
| --- | --- | --- | --- | --- | --- | --- | --- | --- | --- | --- | --- | --- | --- | --- | --- | --- | --- | --- | --- | --- | --- |
| C=C(F)C(=O)N1CCN(c2nc(OC[C@@H]3CCCN3C)nc3c2CCN(c2cccc4cccc(Cl)c24)C3)C[C@@H]1CC#N [Compound 478] | 256.06 | 308.98 | 324.46 | 329.09 | 310.21 | 290.88 | 257.34 | 249.19 | 71 | 357 | 404 | 435 | 523 | 575 | 607 | 754 | 758 | 741 | 785 | 85 | tumor growth inhibition (LU6405 cells; Day 24, single agent, Compound 478 100 mg/kg p.o. daily): 96%; Average Tumor Volume (H2122 cells; Study Day 0, p.o. daily): 325 mm^3; Average Tumor Volume (H2122 cells; Study Day 2, p.o. daily): 340 mm^3; Average Tumor Volume (H2122 cells; Study Day 4, p.o. daily): 338 mm^3; Average Tumor Volume (H2122 cells; Study Day 7, p.o. daily): 381 mm^3; Average Tumor Volume (H2122 cells; Study Day 9, p.o. daily): 462 mm^3; Average Tumor Volume (H2122 cells; Study Day 11, p.o. daily): 480 mm^3; Average Tumor Volume (H2122 cells; Study Day 14, p.o. daily): 493 mm^3; Average Tumor Volume (H2122 cells; Study Day 16, p.o. daily): 541 mm^3; Average Tumor Volume (H2122 cells; Study Day 18, p.o. daily): 537 mm^3; Average Tumor Volume (H2122 cells; Study Day 21, p.o. daily): 547 mm^3; Average Tumor Volume (H2122 cells; [3]): 547 mm^3 |
| CC(=O)c1c(C)c2cnc(Nc3ccc(N4CCNCC4)cn3)nc2n(C2CCCC2)c1=O [Palbociclib, 6-acetyl-8-cyclopentyl-5-methyl-2-((5-(piperazin-1-yl)pyridin-2-yl)amino)pyrido[2,3-d]pyrimidin-7(8H)-one] | 255.36 | 440.79 | 659.01 | 834.95 | 1165.80 | 1295.57 | 1363.40 | 1382.59 | 40 | 356 | 484 | 508 | 748 | 807 | 706 | 926 | 1029 | 1167 | 1240 | 65 | Average Tumor Volume (SW1573 cells; Study Day 3, p.o. daily): 444 mm^3; Average Tumor Volume (SW1573 cells; Study Day 11, p.o. daily): 515 mm^3; Average Tumor Volume (H2122 cells; Study Day 0, p.o. daily): 326 mm^3; Average Tumor Volume (H2122 cells; Study Day 2, p.o. daily): 385 mm^3; Average Tumor Volume (H2122 cells; Study Day 4, p.o. daily): 493 mm^3; Average Tumor Volume (H2122 cells; Study Day 7, p.o. daily): 601 mm^3; Average Tumor Volume (H2122 cells; Study Day 9, p.o. daily): 646 mm^3; Average Tumor Volume (H2122 cells; Study Day 11, p.o. daily): 663 mm^3; Average Tumor Volume (H2122 cells; Study Day 14, p.o. daily): 748 mm^3; Average Tumor Volume (H2122 cells; Study Day 16, p.o. daily): 765 mm^3; Average Tumor Volume (H2122 cells; Study Day 18, p.o. daily): 790 mm^3; Average Tumor Volume (H2122 cells; Study Day 21, p.o. daily): 836 mm^3; Average Tumor Volume (H2122 cells; [3]): 834 mm^3 |
